23 molecules from US9926302B2, “Heteroaryl substituted heterocyclyl sulfones” (priority 2014, dated 2018) can be followed below.

T1 sequence (P54289 947-1103): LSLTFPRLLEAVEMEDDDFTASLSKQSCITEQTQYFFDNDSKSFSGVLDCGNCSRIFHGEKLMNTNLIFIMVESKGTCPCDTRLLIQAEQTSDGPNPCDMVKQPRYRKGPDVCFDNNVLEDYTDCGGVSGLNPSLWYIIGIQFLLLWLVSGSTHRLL
T1 sequence (P54289 25-946): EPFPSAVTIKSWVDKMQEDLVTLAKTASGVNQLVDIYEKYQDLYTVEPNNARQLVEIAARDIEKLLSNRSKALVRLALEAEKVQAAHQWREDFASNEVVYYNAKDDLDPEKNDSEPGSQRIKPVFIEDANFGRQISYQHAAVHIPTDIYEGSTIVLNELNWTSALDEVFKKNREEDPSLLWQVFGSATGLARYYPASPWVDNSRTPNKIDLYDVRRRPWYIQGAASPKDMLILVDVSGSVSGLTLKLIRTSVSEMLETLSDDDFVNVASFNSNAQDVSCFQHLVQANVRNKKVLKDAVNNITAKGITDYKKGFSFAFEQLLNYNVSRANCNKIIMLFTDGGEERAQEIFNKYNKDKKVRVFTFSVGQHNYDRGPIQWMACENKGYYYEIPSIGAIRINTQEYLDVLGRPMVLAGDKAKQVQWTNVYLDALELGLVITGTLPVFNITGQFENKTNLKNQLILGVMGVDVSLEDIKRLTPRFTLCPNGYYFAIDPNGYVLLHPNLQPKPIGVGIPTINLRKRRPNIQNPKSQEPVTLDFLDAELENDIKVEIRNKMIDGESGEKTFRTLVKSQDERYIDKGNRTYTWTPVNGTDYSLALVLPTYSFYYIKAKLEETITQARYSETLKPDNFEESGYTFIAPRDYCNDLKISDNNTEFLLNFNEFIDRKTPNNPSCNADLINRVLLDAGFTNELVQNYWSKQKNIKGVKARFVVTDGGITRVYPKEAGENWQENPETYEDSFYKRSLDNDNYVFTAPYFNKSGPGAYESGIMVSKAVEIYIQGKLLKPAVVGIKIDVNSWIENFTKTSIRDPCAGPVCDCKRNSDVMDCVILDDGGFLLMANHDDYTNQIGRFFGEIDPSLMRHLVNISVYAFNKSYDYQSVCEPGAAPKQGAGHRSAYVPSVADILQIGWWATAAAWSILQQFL
T1 sequence (P54284 whole entry, further chain): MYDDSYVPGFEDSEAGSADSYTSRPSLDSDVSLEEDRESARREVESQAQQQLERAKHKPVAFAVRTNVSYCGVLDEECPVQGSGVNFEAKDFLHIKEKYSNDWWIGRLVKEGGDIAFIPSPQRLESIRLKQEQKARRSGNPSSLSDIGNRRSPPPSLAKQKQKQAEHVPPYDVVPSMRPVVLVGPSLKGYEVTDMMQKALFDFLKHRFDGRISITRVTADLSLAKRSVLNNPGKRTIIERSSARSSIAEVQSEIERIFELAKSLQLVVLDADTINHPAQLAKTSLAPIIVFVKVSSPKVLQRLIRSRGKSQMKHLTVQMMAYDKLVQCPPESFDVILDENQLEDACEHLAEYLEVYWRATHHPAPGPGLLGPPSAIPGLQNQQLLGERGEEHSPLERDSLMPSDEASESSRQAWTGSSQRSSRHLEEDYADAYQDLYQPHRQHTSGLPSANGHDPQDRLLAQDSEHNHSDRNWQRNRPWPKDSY
T1 sequence (Q00975 whole entry): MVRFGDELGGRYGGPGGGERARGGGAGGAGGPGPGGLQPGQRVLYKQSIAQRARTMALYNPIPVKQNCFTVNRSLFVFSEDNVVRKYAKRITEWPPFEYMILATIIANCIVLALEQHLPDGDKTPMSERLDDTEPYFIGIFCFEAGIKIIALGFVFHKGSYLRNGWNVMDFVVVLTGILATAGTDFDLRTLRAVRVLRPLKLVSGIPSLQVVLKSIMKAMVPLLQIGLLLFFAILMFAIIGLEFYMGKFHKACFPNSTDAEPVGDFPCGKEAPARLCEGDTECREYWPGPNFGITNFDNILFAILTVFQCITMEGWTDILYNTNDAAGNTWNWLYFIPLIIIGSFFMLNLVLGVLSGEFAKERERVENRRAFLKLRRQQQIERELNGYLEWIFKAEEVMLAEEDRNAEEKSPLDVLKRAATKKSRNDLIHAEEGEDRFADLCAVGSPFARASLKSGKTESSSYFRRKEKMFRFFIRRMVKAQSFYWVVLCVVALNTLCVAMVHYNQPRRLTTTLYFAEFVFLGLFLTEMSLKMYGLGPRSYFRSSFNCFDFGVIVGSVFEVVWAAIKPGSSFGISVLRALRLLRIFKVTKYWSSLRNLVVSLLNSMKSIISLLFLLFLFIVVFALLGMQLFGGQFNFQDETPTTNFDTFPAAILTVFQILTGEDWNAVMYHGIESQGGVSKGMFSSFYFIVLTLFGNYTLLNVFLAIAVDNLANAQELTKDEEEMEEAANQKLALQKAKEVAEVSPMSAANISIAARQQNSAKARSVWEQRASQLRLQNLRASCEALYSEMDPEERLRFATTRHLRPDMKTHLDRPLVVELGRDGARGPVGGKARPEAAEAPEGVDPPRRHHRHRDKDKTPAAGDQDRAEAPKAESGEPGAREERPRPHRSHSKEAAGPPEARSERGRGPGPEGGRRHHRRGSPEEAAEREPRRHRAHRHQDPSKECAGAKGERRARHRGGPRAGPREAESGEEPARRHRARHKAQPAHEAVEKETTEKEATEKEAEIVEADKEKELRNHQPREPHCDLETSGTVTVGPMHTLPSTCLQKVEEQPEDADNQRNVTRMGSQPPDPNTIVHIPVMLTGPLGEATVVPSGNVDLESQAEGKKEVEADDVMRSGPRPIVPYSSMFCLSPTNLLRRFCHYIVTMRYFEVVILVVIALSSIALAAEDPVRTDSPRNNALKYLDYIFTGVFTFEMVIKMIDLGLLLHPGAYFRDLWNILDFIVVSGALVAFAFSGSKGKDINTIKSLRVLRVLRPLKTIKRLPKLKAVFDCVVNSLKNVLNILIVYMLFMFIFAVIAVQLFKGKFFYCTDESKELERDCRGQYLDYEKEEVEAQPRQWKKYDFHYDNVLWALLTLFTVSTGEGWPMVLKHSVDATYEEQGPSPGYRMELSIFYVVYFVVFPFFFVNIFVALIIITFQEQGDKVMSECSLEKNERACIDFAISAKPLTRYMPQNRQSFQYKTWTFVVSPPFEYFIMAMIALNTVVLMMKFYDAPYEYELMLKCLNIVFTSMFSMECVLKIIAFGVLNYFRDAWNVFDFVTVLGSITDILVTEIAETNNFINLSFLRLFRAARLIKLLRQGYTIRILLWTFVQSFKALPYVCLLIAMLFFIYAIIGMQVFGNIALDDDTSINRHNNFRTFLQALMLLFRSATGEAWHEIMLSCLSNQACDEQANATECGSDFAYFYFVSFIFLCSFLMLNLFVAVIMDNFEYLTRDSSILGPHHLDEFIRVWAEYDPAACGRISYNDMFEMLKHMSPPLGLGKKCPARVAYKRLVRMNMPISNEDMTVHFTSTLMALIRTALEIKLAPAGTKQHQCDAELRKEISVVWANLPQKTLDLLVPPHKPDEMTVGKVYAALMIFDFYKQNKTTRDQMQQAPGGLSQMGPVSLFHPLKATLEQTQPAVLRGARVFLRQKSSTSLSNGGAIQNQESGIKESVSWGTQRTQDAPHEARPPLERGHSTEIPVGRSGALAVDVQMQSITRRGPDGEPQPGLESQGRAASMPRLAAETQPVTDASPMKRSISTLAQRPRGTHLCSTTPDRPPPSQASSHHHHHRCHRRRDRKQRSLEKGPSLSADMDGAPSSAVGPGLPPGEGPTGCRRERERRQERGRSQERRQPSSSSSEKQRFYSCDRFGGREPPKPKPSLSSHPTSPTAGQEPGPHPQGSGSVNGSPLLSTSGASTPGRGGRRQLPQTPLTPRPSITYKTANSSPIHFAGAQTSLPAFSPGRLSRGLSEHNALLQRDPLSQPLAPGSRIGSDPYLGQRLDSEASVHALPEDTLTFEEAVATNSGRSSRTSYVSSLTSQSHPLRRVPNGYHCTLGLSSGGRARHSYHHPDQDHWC

This assay has as its target T1, Human CaV2.2 channels (Homo sapiens, UniProt Q00975).
T1 construct: expressed in transfected cells
The assay is described as follows: Fluorescence assay for CaV2.2 channels using potassium depolarization to induce channel opening (FLIPR, Fluo 4). It counts as cell-based. Conditions: HEK293, 3 μM test compound; alternative assay buffer 30 mM KCl (inactivated channel state); HEK293 cells stably expressing human CaV2.2; read-out: Activity Category: %-Inhib (CaV2.2) @3 μM @30 mM KCl. The text has this:
In the process, the Ca^2+ influx is quantified in the FLIPR assay with the aid of a Ca^2+-sensitive dye (type Fluo-4, Molecular Probes Europe BV, Leiden, the Netherlands) in a fluorescent imaging plate reader (FLIPR 3, Molecular Devices, Sunnyvale, USA), as described hereinafter.
2.1 Fluorescence Assay for CaV2.2 Channels Using Potassium Depolarization to Induce Channel Opening
Human CaV2.2 channels were stably expressed in HEK293 cells together with alpha2-delta and beta subunits of voltage gated calcium channels. In addition, an inwardly rectifying potassium channel (Kir2.3) was stably expressed in these cells to augment control of the cell membrane potential by the concentration of extracellular potassium ions. Raise of the extracellular potassium concentration leads to depolarization of the membrane potential and thus regulates the voltage dependent state of CaV2.2 channels. For preparation, cells were seeded in black poly-D-lysine coated 96-well plates (Becton Dickinson, Biocoat 4640) in 100 μL medium [500 mL DMEM/F-12 plus Glutamax (Invitrogen 31331-093) plus 5.5 mL MEM NEAA 100× (Invitrogen 11140-035) plus 50 mL FBS decomplemented (Invitrogen 10270-106) plus 200 μg/mL Geneticin (Invitrogen 10131-027) plus 50 μg/mL Hygromycin B (Invitrogen 10687-010) plus 2 μg/mL Blasticidin (anti-bl5b Invivo-Gen) plus 0.2 μg/mL Puromycin (A 11138-03)] at a cell density of 30.000 cells per well. Plates were incubated at 37° C. (5% CO2) for 20 to 23 h. On the day of experiment medium was discarded and cells were loaded with Fluo 4 by addition of 100 μL of basic assay buffer (10 mM HEPES, 1 mM KCl, 149 mM NaCl, 0.8 mM CaCl2, 1.7 mM MgCl2, 10 mM Glucose, 0.1% BSA. pH 7.4) containing 2 μM Fluo 4 (Molecular Probes; F-14201), 0.01% pluronic acid (Molecular Probes; P-6866) and 2.5 mM probenecid (Molecular Probes; P36400). Cells were incubated in the dark at 25° C. for 60 min. Then dye containing buffer was discarded and 100 μL basic (1 mM KCl) or alternative (30 mM KCl) assay buffer was added. The alternative assay buffer contained altered concentrations of KCl (30 mM) and NaCl (120 mM) and was used in order to promote the inactivated channel state. After that 25 μL of basic or alternative assay buffer with or without test compound were added and cells were incubated again in the dark at 25° C. for 15 min. Fluorescence intensity was measured on a FLIPR 3 instrument (Molecular Devices Corp., Sunnyvale, Calif.) with excitation at 480 nm and emission at 535 nm. After continuously reading fluorescence for 30 sec, 50 μL of basic assay buffer containing 210 mM KCl (NaCl omitted) were added for depolarization. Peak fluorescent signal intensity was determined and the amplitude of the peak signal, normalized to base line, was used to measure channel inhibition by test compounds.
As to `CCC1(S(=O)(=O)c2cccc(C(F)(F)F)c2)CCOC(c2nnc(C(F)(F)F)o2)C1` (racemic) [SC-242, 2-[4-Ethyl-4-[[3-(trifluoromethyl)phenyl]sulfonyl]-tetrahydro-pyran-2-yl]-5-(trifluoromethyl)-[1,3,4]oxadiazole], the inhibition at 3 µM lay within 40 to 75%. Take `COc1cc(OC)c(C2CC(C)(S(=O)(=O)c3cccc(C(F)(F)F)c3)CCO2)cn1` (racemic) [SC-247, 2,4-Dimethoxy-5-[4-methyl-4-[[3-(trifluoromethyl)phenyl]sulfonyl]-tetrahydro-pyran-2-yl]-pyridine]: the inhibition at 3 µM lay in the range of 75 to 95%.

On to `COc1cc(C)c(C2CC(C)(S(=O)(=O)c3cccc(C(F)(F)F)c3)CCO2)cn1` (racemic) [SC-252, 2-Methoxy-4-methyl-5-[4-methyl-4-[[3-(trifluoromethyl)phenyl]sulfonyl]-tetrahydro-pyran-2-yl]-pyridine], for which the inhibition at 3 µM fell in the range of 75 to 95%. The figure for `COc1cc(F)c(C2CC(C)(S(=O)(=O)c3cccc(C(F)(F)F)c3)CCO2)cn1` (racemic) [SC-259, 4-Fluoro-2-methoxy-5-[4-methyl-4-[[3-(trifluoromethyl)phenyl]sulfonyl]-tetrahydro-pyran-2-yl]-pyridine] is above 95%.

For the molecule `CC(C)Oc1ccc(C2CC(C)(S(=O)(=O)c3cccc(C(F)(F)F)c3)CCO2)cn1` (racemic) [SC-302, 2-Isopropoxy-5-[4-methyl-4-[[3-(trifluoromethyl)phenyl]sulfonyl]-tetrahydro-pyran-2-yl]-pyridine], the inhibition at 3 µM is above 95%. Regarding `CCC1(S(=O)(=O)c2cccc(C(F)(F)F)c2)CCOC(c2cccc(C)n2)C1` (racemic) [SC-303, 2-[4-Ethyl-4-[[3-(trifluoromethyl)phenyl]sulfonyl]-tetrahydro-pyran-2-yl]-6-methyl-pyridine], the inhibition at 3 µM lay in the range of 75 to 95%. For the molecule `CC1(S(=O)(=O)c2cccc(C(F)(F)F)c2)CCOC(c2ccc(C(F)(F)F)nc2)C1` (racemic) [SC-306, 5-[4-Methyl-4-[[3-(trifluoromethyl)phenyl]sulfonyl]-tetrahydro-pyran-2-yl]-2-(trifluoromethyl)-pyridine], the inhibition at 3 µM is above 95%. In the case of `CCC1(S(=O)(=O)c2cccc(C(F)(F)F)c2)CCOC(c2cccnc2C)C1` (racemic) [SC-314, 3-[4-Ethyl-4-[[3-(trifluoromethyl)phenyl]sulfonyl]-tetrahydro-pyran-2-yl]-2-methyl-pyridine], the inhibition at 3 µM fell in the range of 40 to 75%.

With `CCC1(S(=O)(=O)c2cccc(C(F)(F)F)c2)CCOC(c2ccc(C)nc2C)C1` (racemic) [SC-319, 3-[4-Ethyl-4-[[3-(trifluoromethyl)phenyl]sulfonyl]-tetrahydro-pyran-2-yl]-2,6-dimethyl-pyridine], the inhibition at 3 µM lay within 40 to 75%. The figure for `CC1(S(=O)(=O)c2cccc(C(F)(F)F)c2)CCOC(c2cnc(C3CC3)cn2)C1` (racemic) [SC-328, 2-Cyclopropyl-5-[4-methyl-4-[[3-(trifluoromethyl)phenyl]sulfonyl]-tetrahydro-pyran-2-yl]-pyrazine] is above 95%.

For the molecule `CCC1(S(=O)(=O)c2cccc(C(F)(F)F)c2)CCOC(c2cnc(C3CC3)cn2)C1` (racemic) [SC-333, 2-Cyclopropyl-5-[4-ethyl-4-[[3-(trifluoromethyl)phenyl]sulfonyl]-tetrahydro-pyran-2-yl]-pyrazine], the inhibition at 3 µM is above 95%.

For `CC1(S(=O)(=O)c2cccc(C(F)(F)F)c2)CCOC(c2ccc(Br)nc2)C1` (racemic) [SC-337, 2-Bromo-5-[4-methyl-4-[[3-(trifluoromethyl)phenyl]sulfonyl]-tetrahydro-pyran-2-yl]-pyridine], the inhibition at 3 µM was above 95%.

As for `CC1(S(=O)(=O)c2cccc(C(F)(F)F)c2)CCOC(c2ncc(C(F)(F)F)cc2Cl)C1` (racemic) [SC-340, 3-Chloro-2-(4-methyl-4-((3-(trifluoromethyl)phenyl)sulfonyl)tetrahydro-2H-pyran-2-yl)-5-(trifluoromethyl)pyridine], the inhibition at 3 µM was above 95%. Take `Cc1cccc(C2CC(S(=O)(=O)c3cccc(C(F)(F)F)c3)CCO2)n1` (racemic) [SC-341, 2-methyl-6-[4-[[3-(trifluoromethyl)phenyl]sulfonyl]-tetrahydro-pyran-2-yl]-pyridine]: the inhibition at 3 µM was 40 to 75%. Take `Cn1nc(C(F)(F)F)cc1C1CC(C)(S(=O)(=O)c2cccc(C(F)(F)F)c2)CCO1` (racemic) [SC-344, 1-Methyl-5-[4-methyl-4-[[3-(trifluoromethyl)phenyl]sulfonyl]-tetrahydro-pyran-2-yl]-3-(trifluoromethyl)-1H-pyrazole]: the inhibition at 3 µM lay in the range of 75 to 95%. Regarding `CC1(S(=O)(=O)c2cccc(C(F)(F)F)c2)CCOC(c2ccc(C3CC3)nc2)C1` (racemic) [SC-347, 2-Cyclopropyl-5-[4-methyl-4-[[3-(trifluoromethyl)phenyl]sulfonyl]-tetrahydro-pyran-2-yl]-pyridine], the inhibition at 3 µM was above 95%.

For the molecule `CC1(S(=O)(=O)c2cccc(C(F)(F)F)c2)CCOC(c2cccc(C(F)(F)F)n2)C1` (racemic) [SC-351, 2-[4-Methyl-4-[[3-(trifluoromethyl)phenyl]sulfonyl]-tetrahydro-pyran-2-yl]-6-(trifluoromethyl)-pyridine], the inhibition at 3 µM is above 95%. Then `CC1(S(=O)(=O)c2cccc(C(F)(F)F)c2)CCOC(c2ccc(N3CCCC3)nc2)C1` (racemic) [SC-406, 5-[4-Methyl-4-[[3-(trifluoromethyl)phenyl]sulfonyl]-tetrahydro-pyran-2-yl]-2-pyrrolidin-1-yl-pyridine], with above 95%.

Turning to `CC1(S(=O)(=O)c2cccc(C(F)(F)F)c2)CCOC(c2ccc(-n3cncn3)nc2)C1` (racemic) [SC-407, 5-[4-Methyl-4-[[3-(trifluoromethyl)phenyl]sulfonyl]-tetrahydro-pyran-2-yl]-2-(1H-[1,2,4]triazol-1-yl)-pyridine], the inhibition at 3 µM is 75 to 95%. Regarding `CNc1ccc(C2CC(C)(S(=O)(=O)c3cccc(C(F)(F)F)c3)CCO2)cn1` (racemic) [SC-412, Methyl-[5-[4-methyl-4-[[3-(trifluoromethyl)phenyl]sulfonyl]-tetrahydro-pyran-2-yl]-pyridin-2-yl]-amine], the inhibition at 3 µM was 75 to 95%.

In the case of `CC1(S(=O)(=O)c2cccc(C(F)(F)F)c2)CCOC(c2ccc(OC(F)F)nc2)C1` (racemic) [SC-417, 2-(Difluoro-methoxy)-5-[4-methyl-4-[[3-(trifluoromethyl)phenyl]sulfonyl]-tetrahydro-pyran-2-yl]-pyridine], the inhibition at 3 µM was above 95%. Take `COCCOc1ccc(C2CC(C)(S(=O)(=O)c3cccc(C(F)(F)F)c3)CCO2)cn1` (racemic) [SC-420, 2-(2-Methoxy-ethoxy)-5-[4-methyl-4-[[3-(trifluoromethyl)phenyl]sulfonyl]-tetrahydro-pyran-2-yl]-pyridine]: the inhibition at 3 µM is 75 to 95%. As for `Cn1nc(S(C)(=O)=O)cc1C1CC(C)(S(=O)(=O)c2cccc(C(F)(F)F)c2)CCO1` (racemic) [SC-433, 1-Methyl-3-methylsulfonyl-5-[4-methyl-4-[[3-(trifluoromethyl)phenyl]sulfonyl]-tetrahydro-pyran-2-yl]-1H-pyrazole], the inhibition at 3 µM was 40 to 75%.
